Results from patent US20040265840A1, “Preservation of RNA quality and content in tissue sections during immunohistochemistry” (priority 2002, published 2004).

Tested on: RNase activity in a processed tissue
Experiment: Inhibition of RNase activity in processed tissue during IHC staining
Details: compared to other commercially available RNase inhibitors
Experimental: In one embodiment of the invention, the invention provides methods that preserve or maintain RNA quality and content in an IHC sample, such as for LCM, by use of a ribonucleoside vanadyl complex (RVC) as an RNase inhibitor. […] Use of RVCs is preferred in the practice of the invention over other RNase inhibitors and allows for performance of IHC staining of samples for LCM and downstream gene expression analysis.
The immunostaining was performed on frozen, acetone fixed, sections. RVCs (Ribonucleoside Vanadyl Complexes, Sigma catalog #R3380; Berger et al. Biochemistry 1979, 18:51431; Pukas et al., Biochemistry 1982, 21:46023) at 20 mM were added to all the acts of the staining including primary antibody solution, secondary antibody solution, and rinsing solutions (phosphate buffered saline or PBS). The processing was as follows:
IHC staining was performed on frozen, acetone fixed sections. All reagent solutions were prepared with nuclease free PBS containing a RVC RNase inhibitor and kept at +4° C. The slides were removed from −80° C. storage, 30 seconds are allowed for the condensation to disappear prior to fixing. The staining procedure was done at +4° C. by keeping the slides on a cold block through all parts of the procedure: […]

## Ribonucleoside Vanadyl Complexes [RVCs]
  inhibition of RNase activity in a processed tissue: superior inhibition of RNase activity
